Drawing on PubChem BioAssay AID330 (DTP/NCI, 2004), this text covers T/C for 21 molecules.

“And” between values parts separate entries of the source, which are not always exact repeats. Equal values may be shown once. Toxic doses and inconclusive results are not listed.

The assay relates to P388 leukemia ip, CD2F1 mice, survival T/C. The assay is described as follows: NCI In Vivo Anticancer Drug Screen. Data for tumor model P388 Leukemia (intraperitoneal) in CD2F1 (CDF1) mice. The following applies: endpoint: median survival time, higher = longer survival. The method in brief: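 Mice carrying the transplanted tumor received test compound or vehicle. Survival was recorded in each group, and the value is the treated-group measurement divided by that of the vehicle-treated control group.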

The mark [1] stands for this setting: dose: 50.0 mg/kg/injection, schedule: Q01DX009 (ip), vehicle: Klucel (hydroxypropylcellulose) (HPC).
Setting [2] is: dose: 100.0 mg/kg/injection, schedule: Q01DX009 (ip), vehicle: Klucel (hydroxypropylcellulose) (HPC).
Setting [3] is: dose: 200.0 mg/kg/injection, schedule: Q01DX009 (ip), vehicle: Klucel (hydroxypropylcellulose) (HPC).
Where [4] appears, read: dose: 100.0 mg/kg/injection, schedule: Q01DX009 (ip), vehicle: saline.
Where [5] appears, read: dose: 7.5 mg/kg/injection, schedule: Q01DX005 (ip), vehicle: Klucel (hydroxypropylcellulose) (HPC).
Setting [6] is: dose: 15.0 mg/kg/injection, schedule: Q01DX005 (ip), vehicle: Klucel (hydroxypropylcellulose) (HPC).

Regarding `COC1CCCC=C1[N+](=O)[O-]` (configuration not stated), the T/C was 108 % of control (dose: 6.25 mg/kg/injection, schedule: Q01DX005 (ip), vehicle: saline); 116 % of control (dose: 12.5 mg/kg/injection, schedule: Q01DX005 (ip), vehicle: saline); 115 % of control (dose: 25.0 mg/kg/injection, schedule: Q01DX005 (ip), vehicle: saline).
For `CC(=O)c1cc(C(O)C(O)C(O)C(O)CO)[nH]c1C` (configuration not stated), the T/C (dose: 50.0 mg/kg/injection, schedule: Q01DX005 (ip), vehicle: saline) is 108 % of control; the T/C (dose: 100.0 mg/kg/injection, schedule: Q01DX005 (ip), vehicle: saline) was 108 % of control; the T/C (dose: 200.0 mg/kg/injection, schedule: Q01DX005 (ip), vehicle: saline) was 110 % of control.
Take `Cc1[nH]c2ccc(N(C)C)cc2c(=O)c1CN1CCCCC1`: the T/C was 106 % of control under setting [1], 100 % of control under setting [2] and 108 % of control under setting [3].
For the molecule `CC1(C)N=C(N)N=C(N)N1c1ccc(OCCCOc2ccc(S(=O)(=O)F)cc2)c(Cl)c1`, the T/C runs as follows: (dose: 12.5 mg/kg/injection, schedule: Q04DX003 (ip), vehicle: saline) 120 % of control; (dose: 25.0 mg/kg/injection, schedule: Q04DX003 (ip), vehicle: saline) 115 % of control.
Turning to `CCOP1(=O)CCCCN1Cc1ccccc1` (configuration not stated), the T/C (dose: 50.0 mg/kg/injection, schedule: Q01DX009 (ip), vehicle: saline) was 100 % of control and the T/C under setting [4] is 103 % of control.
`COc1ccc(/C(C#N)=C/c2cccs2)cc1`: the T/C by setting is: under setting [1], 111 % of control; under setting [2], 102 % of control; under setting [3], 104 % of control.
Consider `CNc1ccc2c(cc1=O)C(NC(C)=O)CCc1cc(OC)c(OC)c(OC)c1-2` (configuration not stated), for which the T/C (dose: 0.08 mg/kg/injection, schedule: Q01DX009 (ip), vehicle: Klucel (hydroxypropylcellulose) (HPC)) was 157 % of control; the T/C (dose: 0.12 mg/kg/injection, schedule: Q01DX009 (ip), vehicle: Klucel (hydroxypropylcellulose) (HPC)) was 157 % of control; the T/C (dose: 0.16 mg/kg/injection, schedule: Q01DX009 (ip), vehicle: Klucel (hydroxypropylcellulose) (HPC)) is 174 % of control; the T/C (dose: 0.25 mg/kg/injection, schedule: Q01DX009 (ip), vehicle: Klucel (hydroxypropylcellulose) (HPC)) is 150 % of control; the T/C (dose: 0.32 mg/kg/injection, schedule: Q01DX009 (ip), vehicle: Klucel (hydroxypropylcellulose) (HPC)) was 166 % of control.
In the case of `COC(=O)C(C)NC(=O)C(Cc1c[nH]c2ccccc12)NC(=O)OC(C)(C)C` (configuration not stated), the T/C reads like this: (dose: 12.5 mg/kg/injection, schedule: Q01DX009 (ip), vehicle: other) 88 % of control; (dose: 25.0 mg/kg/injection, schedule: Q01DX009 (ip), vehicle: other) 89 % of control; (dose: 50.0 mg/kg/injection, schedule: Q01DX009 (ip), vehicle: other) 100 % of control; (dose: 100.0 mg/kg/injection, schedule: Q01DX009 (ip), vehicle: other) 101 % of control; (dose: 200.0 mg/kg/injection, schedule: Q01DX009 (ip), vehicle: other) 117 % of control.
With `O/N=C1/C(=N/O)N(c2ccccc2)CN1c1ccccc1`, the T/C was 102 % of control under setting [5]; 95 % of control under setting [6]; 98 % of control (dose: 30.0 mg/kg/injection, schedule: Q01DX005 (ip), vehicle: Klucel (hydroxypropylcellulose) (HPC)).
Regarding `CCOC(=O)C12C=CC(=O)NC1(OC)OC(C)C2` (configuration not stated), the T/C (dose: 100.0 mg/kg/injection, schedule: Q01DX001 (ip), vehicle: Klucel (hydroxypropylcellulose) (HPC)) was 90 % of control; the T/C (dose: 200.0 mg/kg/injection, schedule: Q01DX001 (ip), vehicle: Klucel (hydroxypropylcellulose) (HPC)) is 94 % of control; the T/C (dose: 400.0 mg/kg/injection, schedule: Q01DX001 (ip), vehicle: Klucel (hydroxypropylcellulose) (HPC)) was 93 % of control.
Take `CC(=O)c1c(C)n(-c2ccccc2)c2c1nnc1ccccc12`: the T/C was 101 % of control (dose: 3.75 mg/kg/injection, schedule: Q01DX005 (ip), vehicle: Klucel (hydroxypropylcellulose) (HPC)); 93 % of control under setting [5]; 95 % of control under setting [6]; 96 % of control (dose: 120.0 mg/kg/injection, schedule: Q01DX005 (ip), vehicle: Klucel (hydroxypropylcellulose) (HPC)).
Turning to `CC(C)(C)CC(C)(C)c1ccc(OCc2ccc(C(F)(F)F)cc2)cc1`, the T/C is 100 % of control (dose: 50.0 mg/kg/injection, schedule: Q01DX009 (ip), vehicle: saline with Tween-80); 96 % of control (dose: 100.0 mg/kg/injection, schedule: Q01DX009 (ip), vehicle: saline with Tween-80); 100 % of control (dose: 200.0 mg/kg/injection, schedule: Q01DX009 (ip), vehicle: saline with Tween-80).
Take `CCN(CC)CCCC(CO)Nc1ccnc2cc(Cl)ccc12` (configuration not stated): the T/C reads like this: under setting [1], 104 % of control and 100 % of control; under setting [2], 96 % of control and 98 % of control.
Take `NC(=S)n1nc(-c2ccccc2)c(N=Nc2ccccc2[N+](=O)[O-])c1-c1ccccc1`: the T/C is 99 % of control (dose: 100.0 mg/kg/injection, schedule: Q04DX002 (ip), vehicle: Klucel (hydroxypropylcellulose) (HPC)); 110 % of control (dose: 200.0 mg/kg/injection, schedule: Q04DX002 (ip), vehicle: Klucel (hydroxypropylcellulose) (HPC)); 105 % of control (dose: 400.0 mg/kg/injection, schedule: Q04DX002 (ip), vehicle: Klucel (hydroxypropylcellulose) (HPC)).
Regarding `O=C(Nc1c[nH]c(=O)[nH]c1=O)C(Cl)Cl`, the T/C was 93 % of control (dose: 3.12 mg/kg/injection, schedule: Q01DX009 (ip), vehicle: saline); 97 % of control (dose: 6.25 mg/kg/injection, schedule: Q01DX009 (ip), vehicle: saline); 101 % of control (dose: 12.5 mg/kg/injection, schedule: Q01DX009 (ip), vehicle: saline); 100 % of control (dose: 25.0 mg/kg/injection, schedule: Q01DX009 (ip), vehicle: saline).
Regarding `O=C1C(Cl)=C(Cl)C(=O)C2=C1C1c3ccccc3C2c2ccccc21`, the T/C was 105 % of control (dose: 100.0 mg/kg/injection, schedule: Q01DX009 (ip), vehicle: saline sonified); 110 % of control (dose: 200.0 mg/kg/injection, schedule: Q01DX009 (ip), vehicle: saline sonified); 100 % of control (dose: 400.0 mg/kg/injection, schedule: Q01DX009 (ip), vehicle: saline sonified).
Turning to `CCCCCCCCCC(C)(C)NP(=S)(OCC)OCC` (tested in a mixture with another compound), the T/C runs as follows: under setting [1], 105 % of control; under setting [2], 105 % of control; under setting [3], 100 % of control.
For `COc1ccc(-n2cccc2/C=N\O)cc1OC`, the T/C (dose: 60.0 mg/kg/injection, schedule: Q01DX005 (ip), vehicle: saline with Tween-80) was 93 % of control; the T/C (dose: 120.0 mg/kg/injection, schedule: Q01DX005 (ip), vehicle: saline with Tween-80) was 94 % of control; the T/C (dose: 240.0 mg/kg/injection, schedule: Q01DX005 (ip), vehicle: saline with Tween-80) is 93 % of control.
Take `CCCCCCCCCCSCC`: the T/C under setting [4] was 95 % of control; the T/C (dose: 100.0 mg/kg/injection, schedule: Q04DX003 (ip), vehicle: saline) is 100 % of control; the T/C (dose: 200.0 mg/kg/injection, schedule: Q01DX009 (ip), vehicle: saline) was 100 % of control; the T/C (dose: 200.0 mg/kg/injection, schedule: Q04DX003 (ip), vehicle: saline) is 91 % of control; the T/C (dose: 400.0 mg/kg/injection, schedule: Q01DX009 (ip), vehicle: saline) is 104 % of control; the T/C (dose: 400.0 mg/kg/injection, schedule: Q04DX003 (ip), vehicle: saline) is 100 % of control.
On to `COc1cccc(C=O)c1OCCSC`, for which the T/C by setting is: (dose: 25.0 mg/kg/injection, schedule: Q01DX005 (ip), vehicle: saline with Tween-80) 99 % of control; (dose: 50.0 mg/kg/injection, schedule: Q01DX005 (ip), vehicle: saline with Tween-80) 103 % of control; (dose: 100.0 mg/kg/injection, schedule: Q01DX005 (ip), vehicle: saline with Tween-80) 108 % of control.
Regarding `O=NNc1ncc(Cl)cc1Cl`, the T/C reads like this: (dose: 1.56 mg/kg/injection, schedule: Q01DX009 (ip), vehicle: water) 106 % of control; (dose: 3.12 mg/kg/injection, schedule: Q01DX009 (ip), vehicle: water) 101 % of control; (dose: 6.0 mg/kg/injection, schedule: Q01DX009 (ip), vehicle: water) 118 % of control; (dose: 6.25 mg/kg/injection, schedule: Q01DX009 (ip), vehicle: water) 107 % of control; (dose: 12.5 mg/kg/injection, schedule: Q01DX009 (ip), vehicle: water) 111 % of control and 120 % of control; (dose: 25.0 mg/kg/injection, schedule: Q01DX009 (ip), vehicle: water) 120 % of control.
